The source of these data is publication PMC6026642 (Frontiers in Chemistry, 2018).

Where two headings read alike, the source gives them in different places. No end group written: not given here.

Data set [1] is described as follows: in vivo. The note with it: both, Wistar, rat, 2 mg/kg.
For data set [2] the following is noted: rat, in vivo, 2 mg/kg.
In data set [3] the test system is PRV. Format: cell-based, pseudorabies virus. The note with it: TCID50 based, R = A2/A1 × 100%; 50 μg/ml peptide (method says 50 μM, 1 h incubation); Vero and PK-15 cells; mean.
For data set [4], the system named is PEDV. Format: cell-based, porcine epidemic diarrhea virus.

In the case of FFHHIFRGIVHVGKTIHRLVTG [Piscidin 1], in data set [1] (im), the AUC(0-inf) (as a rule, total exposure, with the tail of the curve extrapolated) came out at 19000 ± 1370 ng·h/mL; the Cmax – broadly, the peak of the concentration-time curve – is 2370 ± 160 ng/mL; the mean residence time (MRT) (in general, a mean duration of stay, worked out from the concentration-time curve) turned out to be 30.1 ± 2.46 h; the Tmax (commonly the time from dosing to the highest level) is 0.333 ± 0.151 h. In data set [1] (im), the bioavailability (in general, the share of a dose that reaches the circulation, judged against a reference dose that is usually intravenous) amounted to 73.2% and the half-life (usually the time in which the quantity being followed falls by half) is 23.5 ± 2.43 h. Moreover, in data set [1] (iv), the AUC(0-inf) was found to be 25900 ± 3210 ng·h/mL; the MRT was 22.8 ± 2.43 h; the clearance (as a rule, the volume of plasma or blood freed of the substance per unit of time) was 1.12 mL/min/kg; the half-life was 17 ± 1.43 h. Besides, in data set [1] (po), the AUC(0-inf) was found to be 9630 ± 870 ng·h/mL, the peak level (Cmax) was 730 ± 80 ng/mL, the MRT was found to be 26.8 ± 2.89 h and the Tmax stood at 0.5 ± 0.23 h. In data set [1] (po), this sequence had a bioavailability of 37.2% and a half-life of 19.5 ± 1.67 h. For the same sequence, in data set [2], the “AUC0−∞” value came to 78.40 ± 8.64 µg·h/g, the “CLb (body clearance)” value is 0.433 ± 0.13 mL/min/kg, the Cmax is 1.67 ± 0.19 µg/g and the “Ke (elimination rate constant)” value was determined as 0.034 ± 0.06 h⁻¹. Besides, in data set [2], the MRT is listed as 36.45 ± 2.45 h; the “Ratio of AUC0−∞, ileum content / serum” value amounted to 4.14; the “Ratio of CLb, ileum content / serum” value is 0.273; the “Ratio of Cmax, ileum content / serum” value was 0.71. Besides, in data set [2], the “Ratio of Ke, ileum content / serum” value came out at 1.17; the “Ratio of MRT, ileum content / serum” value amounted to 1.21; the “Ratio of T1/2, ileum content / serum” value was 0.858; the “Ratio of Tmax, ileum content / serum” value worked out at 24.38. For the same sequence, in data set [2], the “T1/2 (elimination half-life)” value was determined as 20.16 ± 1.76 h and the Tmax amounted to 8.12 ± 1.02 h.
“FKCRRWQWRM KKLGAPSITC VRRAF [lactoferricin]”: the “virus survived ratio of PRV” value in data set [3] is listed as 82%. For the same sequence, in data set [4], the “virus survived ratio of PEDV” value is listed as 93%.
